In publication PMC9578445, “Association of respiratory failure with inhibition of NaV1.6 in the phrenic nerve” (Channels, 2022):
Read-outs that look alike come from different tables or passages of the source.

Key:
[1] = Plasma exposure in rat CV/R assay; type: in vivo; details: for concentration at 15 min / concentration at 30 min: CD, plasma, iv; for concentration at 15 min / concentration at 30 min / Total [plasma] / Unbound [plasma]: rat, IV infusion; for unbound plasma concentration just prior to death: blood samples taken just prior to death; for Total [plasma] / Unbound [plasma]: just prior to death
From the text: For in vivo CVR and phrenic nerve activity studies, all raw signals were amplified via general purposed biological amplifier (filter settings DC – 3-5 KhZ) then digitized, calibrated and collected at a minimum of 500 Hz (1000 Hz for ECG and 2000 Hz for cardiac electrograms, and 10 KHz for phrenic nerve activity) using Notocord-HEM data acquisition and analysis software. The raw signal was filtered following acquisition with a bandpass filter set to 200–800 Hz). Vehicle (100% dimethylformamdide, DMF) or compound formulated in the vehicle was administered as a 30-minute IV infusion at 0.0167 μL/g body weight/min. […] Exposure in rats was determined in separate pharmacokinetics experiments where compounds were administered via IV dosing.

phrenic nerve = experiment: Rat phrenic nerve firing assay; details: rat in vivo, measured at 30 minutes
Experimental: To determine direct effects on phrenic nerve activity, male CD rats were anesthetized and instrumented as described above for the CV/R assay. In addition, an incision was made in the ventral neck area and the right phrenic nerve identified anatomically and isolated via blunt dissection. The phrenic nerve was placed over a high impedance bipolar hook electrode and the nerve covered with mineral oil to prevent desiccation. Animals were mechanically ventilated via a tracheotomy (~10 mL/kg, 40–70 breaths/min, titrated individually to stabilize phrenic activity) following neuromuscular block (pancuronium 0.5–1 mg/kg, iv) and bilateral vagotomy to better define test agent effects on phrenic nerve activity. Anesthesia was verified repeatedly following pancuronium administration by testing the BP/HR response to noxious stimuli. Spontaneous electrical activity was continuously recorded and then later rectified and averaged to calculate frequency, width, peak height of bursts, and magnitude. Magnitude of the activity was calculated by taking the absolute value of the raw signal and then averaging that signal over 50 ms increments. The resulting average signal was then converted to magnitude by subtracting the […] for each phrenic burst complex. The resulting magnitude values were then averaged over 1 minute increments to result in the graphs shown. Figure S1 in the Supplemental Information illustrates this analytical procedure.
For in vivo CVR and phrenic nerve activity studies, all raw signals were amplified via general purposed biological amplifier (filter settings DC – 3-5 KhZ) then digitized, calibrated and collected at a minimum of 500 Hz (1000 Hz for ECG and 2000 Hz for cardiac electrograms, and 10 KHz for phrenic nerve activity) using Notocord-HEM data acquisition and analysis software. The raw signal was filtered following acquisition with a bandpass filter set to 200–800 Hz). Vehicle (100% dimethylformamdide, DMF) or compound formulated in the vehicle was administered as a 30-minute IV infusion at 0.0167 μL/g body weight/min. Doses were selected to achieve unbound plasma concentrations in range of measured Nav1.6 IC50 values when infused at 0.0167uL/g body weight/min based on measured rat clearance, plasma protein binding and Nav1.6 IC50. Exposure in rats was determined in separate pharmacokinetics experiments where compounds were administered via IV dosing.

[2] = Permeability (Papp, passive diffusion); type: in vitro ADME
Pgp = Pgp (Homo sapiens, UniProt P08183); experiment: Permeability BA/AB ratio (Pgp transport); type: in vitro ADME; details: not told
Sequence of Pgp (P08183 whole entry): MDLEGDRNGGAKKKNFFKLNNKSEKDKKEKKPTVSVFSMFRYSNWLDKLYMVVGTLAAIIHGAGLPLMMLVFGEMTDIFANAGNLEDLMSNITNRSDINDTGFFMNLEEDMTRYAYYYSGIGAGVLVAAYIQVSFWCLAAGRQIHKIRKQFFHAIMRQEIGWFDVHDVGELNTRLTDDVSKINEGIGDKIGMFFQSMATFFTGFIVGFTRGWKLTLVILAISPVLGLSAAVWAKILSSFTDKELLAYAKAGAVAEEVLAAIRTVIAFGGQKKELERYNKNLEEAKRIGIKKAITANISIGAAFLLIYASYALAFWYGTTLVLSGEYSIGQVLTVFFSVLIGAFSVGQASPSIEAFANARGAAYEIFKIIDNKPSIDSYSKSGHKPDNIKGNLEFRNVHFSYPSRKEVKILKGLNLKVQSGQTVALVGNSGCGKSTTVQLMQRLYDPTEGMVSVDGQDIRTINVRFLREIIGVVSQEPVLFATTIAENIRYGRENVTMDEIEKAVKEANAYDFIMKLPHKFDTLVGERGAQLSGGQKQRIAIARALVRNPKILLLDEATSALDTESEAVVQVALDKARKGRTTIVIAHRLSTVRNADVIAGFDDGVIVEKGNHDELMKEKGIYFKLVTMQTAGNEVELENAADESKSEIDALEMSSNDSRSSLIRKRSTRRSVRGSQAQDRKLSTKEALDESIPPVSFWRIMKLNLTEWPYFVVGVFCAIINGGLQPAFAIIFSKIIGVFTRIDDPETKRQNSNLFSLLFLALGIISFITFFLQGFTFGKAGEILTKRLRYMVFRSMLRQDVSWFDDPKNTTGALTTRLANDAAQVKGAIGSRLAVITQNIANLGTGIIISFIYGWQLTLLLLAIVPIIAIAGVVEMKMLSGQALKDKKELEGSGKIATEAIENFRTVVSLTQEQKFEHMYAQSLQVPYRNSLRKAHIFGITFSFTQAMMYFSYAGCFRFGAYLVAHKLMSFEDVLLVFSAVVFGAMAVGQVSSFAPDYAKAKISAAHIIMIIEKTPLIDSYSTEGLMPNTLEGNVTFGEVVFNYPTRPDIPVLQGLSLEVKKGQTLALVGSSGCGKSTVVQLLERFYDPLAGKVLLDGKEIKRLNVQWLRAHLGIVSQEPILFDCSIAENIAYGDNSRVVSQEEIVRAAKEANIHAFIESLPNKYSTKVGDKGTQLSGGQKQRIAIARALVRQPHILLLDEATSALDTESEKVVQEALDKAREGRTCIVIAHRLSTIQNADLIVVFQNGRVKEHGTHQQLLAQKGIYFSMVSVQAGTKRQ

[3] = tested on: rat diaphragm with the phrenic nerve attached; experiment: Rat hemisected diaphragm (HMD) assay, ex vivo; details: for IC50: relative to 3 μM d-Tubocurarine relaxation = 100%; for inhibition in rat HMD assay: at both 10 and 30 μM
From the text: Wistar derived male or female rats weighing 450 ± 50 g were euthanized by CO2 overexposure. The diaphragm with the phrenic nerve attached was removed and placed into a tissue recording chamber containing Krebs solution pH 7.4; (composition in g/L: NaCl 6.89, KCl 0.35, CaCl2 0.277, KH2PO4 0.163, MgSO4 · 7H2O 0.296, NaHCO3 2.1 and glucose 1.8). A piece of cotton was attached to the top of the phrenic nerve over the jaw electrodes. A second piece of cotton was attached to the tip of the tendinous tissue at the apex of the diaphragm preparation for attachment to an isometric transducer under 1 g tension. The rib of the diaphragm preparation was secured to the bottom of the jaw electrodes. […] The recording chamber was placed into a water bath kept at a temperature of 32°C by means of a suitable thermoregulator consisting of a thermostat and heating elements in addition to a water circulator.
The isometric transducer was connected to an amplifier and the tissue response was recorded on a two-pen recorder set at 1 volt. Field stimulation [S48 Stimulator (GRASS) set at 0.2 Hz (12 pulses per minute), 0.5 ms pulse duration at 70% of maximum voltage (about 3 to 5 volts)] delivered to two circle platinum electrodes (0.2 cm in diameter) was applied for transmural tissue stimulation. Each tissue preparation was washed three times in Krebs solution every 15 minutes for a 60 minute equilibration period and permitted to develop contractions. D-Tubocurarine (300 µM dissolved in 0.1 mL distilled water for a final 3 µM bath concentration) was added to establish an isometrically recorded control relaxation response ranging from one to two centimeters and corresponding to 60–70% of maximal relaxation. […] The tissue was then washed periodically until the contraction returns to the baseline value.
Sixty minutes later, the test compound was added (e.g. 30 mM in 0.01 mL vehicle of 100% DMSO, for final concentration of 30 µM test compound and 0.1% DMSO). A test compound recorded relaxation response of 50% or more (≥50%) within 5 minutes, relative to the 3 µM d-Tubocurarine control response, indicates neuromuscular blocking activity.

[4] = 14 mg/kg, 14 mg/kg, read-out: Total [plasma]
[5] = 14 mg/kg, 14 mg/kg, read-out: Unbound [plasma]
[6] = male, 7 mg/kg, 7 mg/kg, read-out: Total [plasma]
[7] = male, 7 mg/kg, 7 mg/kg, read-out: Unbound [plasma]
[8] = male, 30 mg/kg, 30 mg/kg, read-out: Total [plasma]
[9] = male, 30 mg/kg, 30 mg/kg, read-out: Unbound [plasma]
[10] = 10 mg/kg, 10 mg/kg, read-out: Total [plasma]
[11] = 10 mg/kg, 10 mg/kg, read-out: Unbound [plasma]
[12] = 1 mg/kg, 1 mg/kg, read-out: Total [plasma]
[13] = 1 mg/kg, 1 mg/kg, read-out: Unbound [plasma]

O=S(=O)(Nc1nccs1)c1cc(Cl)c(NCCCCNC[C@H]2CCCN2)cc1F [SSCI-1]
concentration at 15 min [1, 4]: 88.3 ± 5.6 µM | concentration at 15 min [1, 5]: 5.9 ± 0.4 µM | concentration at 30 min [1, 4]: 104 ± 5.2 µM | concentration at 30 min [1, 5]: 7 ± 0.3 µM | concentration at 15 min [1, 6]: 54.4 ± 3.2 µM | concentration at 15 min [1, 7]: 3.6 ± 0.2 µM | concentration at 30 min [1, 6]: 76.7 ± 4.1 µM | concentration at 30 min [1, 7]: 5.1 ± 0.3 µM | concentration at 15 min [1, 8]: 230 ± 12 µM | concentration at 15 min [1, 9]: 15.4 ± 0.8 µM | concentration at 30 min [1, 8]: 252 ± 4 µM | concentration at 30 min [1, 9]: 16.9 ± 0.3 µM | unbound plasma exposure ([1]; rat CV/R assay, no mortality): 16.9 µM | percent decrease in the magnitude of the phrenic nerve signal (phrenic nerve): did not show any decrease | Papp [2]: 1.027 10e-6cm/s | efflux ratio (Pgp): ~1.1 | inhibition of diaphragm contraction / respiratory effect in HMD assay [3]: does not exhibit respiratory effect | inhibition at 30 µM ([3]; Rattus norvegicus, highest concentration tested of 30 μM): < 50% | IC50 ([3]; Rattus norvegicus): > 30 µM | inhibition in rat HMD assay [3]: little effect

C[C@H](c1cccc2c1CNCC2)n1c(=O)oc2cc(S(=O)(=O)Nc3ncns3)ccc21 [SSCI-3]
concentration at 15 min [1, 10]: 32.1 ± 2 µM | concentration at 15 min [1, 11]: 3.8 ± 0.2 µM | concentration at 30 min [1, 10]: 43.5 ± 1.8 µM | concentration at 30 min [1, 11]: 5.1 ± 0.2 µM | concentration at 15 min [1, 8]: 108 ± 4.1 µM | concentration at 15 min [1, 9]: 12.7 ± 0.5 µM | unbound plasma concentration just prior to death ([1]; rat CV/R assay): 20.2 µM | Total [plasma] ([1]; 30 mg/kg, 20–21 min): 171.2 ± 10.2a μM | Unbound [plasma] ([1]; 30 mg/kg, 20–21 min): 20.2 ± 1.2a μM | percent decrease in the magnitude of the phrenic nerve signal (phrenic nerve): 74.2% | Papp [2]: 1.716 10e-6cm/s | efflux ratio (Pgp): ~1.03 | IC50 ([3]; Rattus norvegicus): 2.7 µM

N#Cc1cc(S(=O)(=O)Nc2cscn2)ccc1Oc1ccc(Cl)cc1-c1ccnn1C1CNC1 [SSCI-5]
concentration at 15 min [1, 8]: 38.2 ± 1.6 µM | concentration at 15 min [1, 9]: 4.9 ± 0.2 µM | concentration at 30 min [1, 8]: 42.1 ± 1.2 µM | concentration at 30 min [1, 9]: 5.4 ± 0.2 µM | concentration at 15 min ([1]; male, 60 mg/kg, 60 mg/kg, read-out: Total [plasma]): 67.7 µM | concentration at 15 min ([1]; male, 60 mg/kg, 60 mg/kg, read-out: Unbound [plasma]): 8.7 µM | unbound plasma concentration just prior to death ([1]; rat CV/R assay): 19.7 µM | Total [plasma] ([1]; 60 mg/kg, 21–23 min): 154a μM | Unbound [plasma] ([1]; 60 mg/kg, 21–23 min): 19.7a μM | percent decrease in the magnitude of the phrenic nerve signal (phrenic nerve): 76.1% | Papp [2]: 1.351 10e-6cm/s | efflux ratio (Pgp): < 999 | IC50 ([3]; Rattus norvegicus): 11 µM

COc1ccc(CCC(c2cccc3c2CNCC3)n2c(=O)oc3cc(S(=O)(=O)Nc4ncns4)c(F)cc32)cc1 (stereo not shown) [SSCI-6]
concentration at 15 min [1, 12]: 1.4 ± 0.2 µM | concentration at 15 min [1, 13]: 0.025 ± 0.004 µM | concentration at 30 min [1, 12]: 1.5 µM | concentration at 30 min [1, 13]: 0.027 µM | unbound plasma concentration just prior to death ([1]; rat CV/R assay): 0.05 µM | Total [plasma] ([1]; 1 mg/kg, 20–23 min): 2.8a μM | Unbound [plasma] ([1]; 1 mg/kg, 20–23 min): 0.050a μM | Ex vivo HMD inhibition ([3]; at 10 (μM), relative to 3 μM d-Tubocurarine = 100%): 130% at 10 | inhibition in rat HMD assay [3]: supramaximal inhibition
